Experimental data taken from patent US11427548B2 (Arvinas Operations, Inc., priority 2015, dated 2022).
Read-outs that look alike come from different tables or passages of the source.

Target: T1, Androgen Receptor (Homo sapiens, UniProt P10275)
T1 construct: endogenous in cells; host or cells: VCaP cells
T1 sequence (P10275 1-920): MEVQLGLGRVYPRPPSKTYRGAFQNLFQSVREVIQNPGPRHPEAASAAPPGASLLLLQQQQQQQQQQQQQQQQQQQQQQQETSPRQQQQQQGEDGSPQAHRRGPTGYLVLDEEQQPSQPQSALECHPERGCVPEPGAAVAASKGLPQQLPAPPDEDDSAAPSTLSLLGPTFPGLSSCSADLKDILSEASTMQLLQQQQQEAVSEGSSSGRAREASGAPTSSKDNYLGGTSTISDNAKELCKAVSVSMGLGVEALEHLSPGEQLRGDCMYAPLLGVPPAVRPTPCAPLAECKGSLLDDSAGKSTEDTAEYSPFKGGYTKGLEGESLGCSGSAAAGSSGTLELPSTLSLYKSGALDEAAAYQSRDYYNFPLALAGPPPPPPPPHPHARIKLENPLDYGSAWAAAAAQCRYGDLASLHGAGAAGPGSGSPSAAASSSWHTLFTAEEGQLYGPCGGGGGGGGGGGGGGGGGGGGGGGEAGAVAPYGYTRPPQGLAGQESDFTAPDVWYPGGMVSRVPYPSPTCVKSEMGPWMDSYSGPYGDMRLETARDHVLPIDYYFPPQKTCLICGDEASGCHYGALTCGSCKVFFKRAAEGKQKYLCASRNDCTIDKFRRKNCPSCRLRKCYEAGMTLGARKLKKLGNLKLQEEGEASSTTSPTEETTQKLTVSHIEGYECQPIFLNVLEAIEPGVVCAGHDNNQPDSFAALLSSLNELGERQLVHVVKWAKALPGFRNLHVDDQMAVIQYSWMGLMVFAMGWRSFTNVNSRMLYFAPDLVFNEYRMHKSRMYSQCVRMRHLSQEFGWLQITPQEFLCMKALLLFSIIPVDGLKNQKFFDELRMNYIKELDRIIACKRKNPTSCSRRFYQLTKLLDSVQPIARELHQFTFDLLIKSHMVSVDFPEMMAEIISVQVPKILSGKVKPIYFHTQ
Experiment: Androgen Receptor ELISA assay (PathScan AR ELISA) in VCaP cells: AR degradation, Dmax and DC50
Assay type: cell-based
Procedure, shortened: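 After 24 h exposure of VCaP cells (charcoal-stripped serum, 0.1 nM R1881 agonist, 0.1% DMSO) to seven half-log compound concentrations, residual AR in lysates was measured by PathScan ELISA (TMB absorbance, 450 nm). Cells were plated at 30,000/well and grown at least 3 days beforehand.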

[1] = read-out: VCaP DC50; concentration that caused 50% Androgen Receptor degradation, VCaP cells (Table 32)
[2] = VCaP cells; Table 35; read-out: VCaP DC50
[3] = VCaP, VCaP cells; Table 35; read-out: VCaP Dmax (%)
[4] = VCaP cells; Table 36; read-out: VCaP DC50
[5] = VCaP, VCaP cells; Table 36; read-out: VCaP Dmax (%)
[6] = read-out: VCaP DC50; concentration that caused 50% Androgen Receptor degradation, VCaP cells

CC(C)(C)[C@H](NC(=O)COCCCOCCCCOc1ccc(N2C(=S)N(c3ccc(C#N)c(Cl)c3)C(=O)C2(C)C)c(F)c1)C(=O)N1C[C@H](O)C[C@H]1C(=O)NCc1ccc(-c2cnco2)cc1 [Example 336]
Dmax (VCaP, read-out: VCaP Dmax (%)): > 71% | DC50 (read-out: VCaP DC50; VCaP cells; Table 34): < 0.05 µM

Cc1ncsc1-c1ccc([C@H](C)NC(=O)[C@@H]2C[C@@H](O)CN2C(=O)[C@@H](NC(=O)COCCCCNc2ccc(-c3ccc(N4C(=S)N(c5ccc(C#N)c(C(F)(F)F)c5)C(=O)C4(C)C)cc3)cc2)C(C)(C)C)cc1 [Example 145, (2S,4R)-1-[(2S)-2-[2-(4-{[4-(4-{3-[4-cyano-3-(trifluoromethyl)phenyl]-5,5-dimethyl-4-oxo-2-sulfanylideneimidazolidin-1-yl}phenyl)phen-yl]amino}butoxy)acetamido]-3,3-dimethylbutanoyl]-4-hydroxy-N-[(1S)-1-[4-(4-methyl-1,3-thiazol-5-yl)phenyl]ethyl]pyrrolidine-2-carboxamide]
Dmax (VCaP, read-out: VCaP Dmax (%)): > 71% | DC50 [1]: < 0.05 µM

CC(C)(C)[C@H](NC(=O)COCCCCOCCn1cc(C(=O)N[C@H]2C(C)(C)[C@H](Oc3ccc(C#N)c(Cl)c3)C2(C)C)cn1)C(=O)N1C[C@H](O)C[C@H]1C(=O)NCc1ccc(-c2cncs2)cc1 [Example 347]
DC50 (VCaP cells; Table 34; read-out: VCaP DC50): < 0.05 µM | Dmax (VCaP, VCaP cells; Table 34; read-out: VCaP Dmax (%)): 51 to 70%

CC(C)(C)[C@H](NC(=O)COCCCCOc1ccc(C(=O)N[C@H]2C(C)(C)[C@H](Oc3ccc(C#N)c(Cl)c3)C2(C)C)cc1)C(=O)N1C[C@H](O)C[C@H]1C(=O)NCc1ccc(-n2cccn2)cc1 [Example 568]
DC50 [2]: < 0.05 µM | Dmax [3]: > 71%

Cc1ncsc1-c1ccc([C@H](C)NC(=O)[C@@H]2CC(O)CN2C(=O)[C@H](C(C)C)n2nccc2OCCCCCNc2ccc(C(=O)N[C@H]3C(C)(C)[C@H](Oc4ccc(C#N)c(Cl)c4)C3(C)C)cc2)cc1 (stereo partly drawn) [Example 625, (2S,4R)-1-((R)-2-(5-((5-((4-(((1r,3r)-3-(3-chloro-4-cyanophenoxy)-2,2,4,4-tetramehtylcyclobutyl)carbamoyl)phenyl)amino)pentyl)oxy)-1H-pyrazol-1-yl)-3-methylbutanoyl)-4-hydroxy-N-((S)-1-(4-(4-methylthiazol-5-yl)phenyl)ethyl)pyrrolidine-2-carboxamide]
VCaP Dmax (%) (VCaP cells; Table 36): ++ (26% ≤ Dmax ≤ 50%) | DC50 [4]: > 0.501 µM

Cc1ncsc1-c1ccc([C@H](C)NC(=O)[C@@H]2C[C@@H](O)CN2C(=O)[C@@H](NC(=O)COCCCCCNc2ccc(C(=O)N[C@H]3C(C)(C)[C@H](Oc4ccc(C#N)c(Cl)c4)C3(C)C)c(F)c2)C(C)(C)C)cc1 [Example 495]
DC50 [2]: > 0.501 µM | Dmax [3]: 26 to 50%

Cc1ncsc1-c1ccc(CNC(=O)[C@@H]2C[C@@H](O)CN2C(=O)[C@H](C(C)C)N2Cc3ccccc3C2=O)c(N2CCN(CCCc3ccc(C(=O)N[C@H]4C(C)(C)[C@H](Oc5ccc(C#N)c(C(F)(F)F)c5)C4(C)C)cc3)CC2)c1 [Example 753, (2S,4R)-N-(2-(4-(3-(4-(((1r,3r)-3-(4-cyano-3-(trifluoromethyl)phenoxy)-2,2,4,4-tetramethylcyclobutyl)carbamoyl)phenyl)propyl)piperazin-1-yl)-4-(4-methylthiazol-5-yl)benzyl)-4-hydroxy-1-((S)-3-methyl-2-(1-oxoisoindolin-2-yl)butanoyl)pyrrolidine-2-carboxamide]
DC50 [4]: < 0.05 µM | Dmax [5]: 51 to 70%

Cc1nccn1-c1ccc(C(C)NC(=O)C2CC(O)CN2C(=O)C(C(C)C)n2cc(-c3ccc(OC4CCN(c5ccc(N6C(=S)N(c7ccc(C#N)c(C(F)(F)F)c7)C(=O)C6(C)C)cn5)CC4)nc3)cn2)cc1 (stereo not shown) [Example 631, 1-(2-(4-(6-((1-(5-(3-(4-cyano-3-(trifluoromethyl)phenyl)-5,5-dimethyl-4-oxo-2-thioxoimidazolidin-1-yl)pyridin-2-yl)piperidin-4-yl)oxy)pyridin-3-yl)-1H-pyrazol-1-yl)-3-methylbutanoyl)-4-hydroxy-N-(1-(4-(2-methyl-1H-imidazol-1-yl)phenyl)ethyl)pyrrolidine-2-carboxamide]
Dmax (VCaP, read-out: VCaP Dmax (%)): < 25% | DC50 (read-out: VCaP DC50; VCaP cells; Table 36): > 0.501 µM

Cc1ncsc1-c1ccc(CNC(=O)[C@@H]2C[C@@H](O)CN2C(=O)[C@@H](NC(=O)COCCCCOCCCOc2ccc(N3C(=S)N(c4ccc(C#N)c(C(F)(F)F)c4)C(=O)C3(C)C)cc2F)C(C)(C)C)cc1 [Example 53, (2S,4R)-1-[(2S)-2-(2-{4-[3-(4-{3-[4-cyano-3-(trifluoromethyl)phenyl]-5,5-dimethyl-4-oxo-2-sulfanylideneimidazolidin-1-yl}-2-fluorophenoxy)propoxy]butoxy}acetamido)-3,3-dimethylbutanoyl]-4-hydroxy-N-{[4-(4-methyl-1,3-thiazol-5-yl)phenyl]methyl}pyrrolidine-2-carboxamide]
Dmax (VCaP, read-out: VCaP Dmax (%)): > 71% | DC50 [6]: 0.051 to 0.5 µM

COc1cc(N2C(=O)C(C)(C)N(c3ccc(OCCCCOCCCOCC(=O)N[C@H](C(=O)N4C[C@H](O)C[C@H]4C(=O)NCc4ccc(-c5cnco5)cc4)C(C)(C)C)c(F)c3)C2=S)ccc1C#N [Example 49, (2S,4R)-1-[(2S)-2-{2-[3-(4-{4-[3-(4-cyano-3-methoxyphenyl)-5,5-dimethyl-4-oxo-2-sulfanylideneimidazolidin-1-yl]-2-fluorophenoxy}butoxy)propoxy]acetamido}-3,3-dimethylbutanoyl]-4-hydroxy-N-{[4-(1,3-oxazol-5-yl)phenyl]methyl}pyrrolidine-2-carboxamide]
Dmax (VCaP, highest percentage of Androgen Receptor degradation observed, VCaP cells; read-out: VCaP Dmax (%)): 51 to 70% | DC50 (concentration that caused 50% Androgen Receptor degradation, VCaP cells; read-out: VCaP DC50): < 0.05 µM

CC(C)[C@H](C(=O)N1C[C@H](O)C[C@H]1C(=O)N[C@@H](C)c1ccc(C#N)cc1)c1cc(OCCN2CCN(c3ccc(C(=O)N[C@H]4C(C)(C)[C@H](Oc5ccc(C#N)c(Cl)c5)C4(C)C)cn3)CC2)no1 [Example 696, N-((1r,3r)-3-(3-chloro-4-cyanophenoxy)-2,2,4,4-tetramethylcyclobutyl)-6-(4-(2-((5-((S)-1-((2S,4R)-2-(((S)-1-(4-cyanophenyl)ethyl)carb-amoyl)-4-hydroxypyrrolidin-1-yl)-3-methyl-1-oxobutan-2-yl)isoxazol-3-yl)oxy)ethyl)piperazin-1-yl)nicotinamide]
DC50 [4]: < 0.05 µM | Dmax (VCaP, read-out: VCaP Dmax (%), VCaP cells; Table 36): < 25%

Cc1ncsc1-c1ccc(CNC(=O)[C@@H]2C[C@@H](O)CN2C(=O)[C@@H](NC(=O)COCCCCOc2ccc(-c3ccc(N4C(=S)N(c5ccc(C#N)c(C(F)(F)F)c5)C(=O)C45CCC5)cc3)cc2)C(C)(C)C)cc1 [Example 120, (2S,4R)-1-[(2S)-2-(2-{4-[4-(4-{7-[4-cyano-3-(trifluoromethyl)phenyl]-8-oxo-6-sulfanylidene-5,7-diazaspiro[3.4]octan-5-yl}phenyl)phenoxy]butoxy}acetamido)-3,3-dimethylbutanoyl]-4-hydroxy-N-{[4-(4-methyl-1,3-thiazol-5-yl)phenyl]methyl}pyrrolidine-2-carboxamide]
Dmax (VCaP, read-out: VCaP Dmax (%)): > 71% | DC50 [1]: < 0.05 µM

Cc1ncoc1-c1ccc(CNC(=O)[C@@H]2C[C@@H](O)CN2C(=O)[C@@H](NC(=O)COCCCOCCCCOc2ccc(N3C(=S)N(c4ccc(C#N)c(Cl)c4)C(=O)C3(C)C)cc2)C(C)(C)C)cc1 [Example 38, (2S,4R)-1-[(2S)-2-{2-[3-(4-{4-[3-(3-chloro-4-cyanophenyl)-5,5-dimethyl-4-oxo-2-sulfanylideneimidazolidin-1-yl]phenoxy}butoxy)propoxy]acetamido}-3,3-dimethylbutanoyl]-4-hydroxy-N-{[4-(4-methyl-1,3-oxazol-5-yl)phenyl]methyl}pyrrolidine-2-carboxamide]
Dmax (VCaP, read-out: VCaP Dmax (%)): 51 to 70% | DC50 [6]: < 0.05 µM

Cc1ncsc1-c1ccc([C@H](C)NC(=O)[C@@H]2C[C@@H](O)CN2C(=O)[C@@H](NC(=O)CCCCCCCc2ccc(C(=O)N[C@H]3C(C)(C)[C@H](Oc4ccc(C#N)c(Cl)c4)C3(C)C)cc2)C(C)(C)C)cc1 [Example 763, (2S,4R)-1-((S)-2-(8-(4-(((1r,3r)-3-(3-chloro-4-cyanophenoxy)-2,2,4,4-tetramethylcyclobutyl)carbamoyl)phenyl)octan-amido)-3,3-dimethylbutanoyl)-4-hydroxy-N-((S)-1-(4-(4-methylthiazol-5-yl)phenyl)ethyl)pyrrolidine-2-carboxamide]
DC50 [4]: < 0.05 µM | Dmax [5]: > 71%
